These results are taken from a melting point compilation (Tetko et al.; mined from patent text by program, amines drawn as free bases though some values may be those of a salt).

A word on the melting point: it is the temperature of the solid-liquid transition.

SMILES strings stand for the structures.

In turn, `COc1ccc(C=C2Oc3ccc(C(=O)O)cc3C2=O)c(OC)c1OC` registered a melting point of 247 to 249 °C.
Regarding `O=[N+]([O-])c1cccnc1NCCc1c[nH]cn1`, the melting point is 178 to 180 °C.
For the compound `Cc1cccc(NC(=O)NCC(=O)N(CC(=O)N2CCC3(CCCC3)CC2)c2ccccc2)c1`, the melting point was 183 °C.
In the case of `CCCCCCCCC1(CCCCCCCC)c2cc(O)ccc2-c2ccc(Br)cc21`, the melting point came to 110 °C.
To `O=C(Nc1ccc(-n2nc(C(F)(F)F)cc2C(F)(F)F)cc1)C1CCCCC1` belongs 178 to 180 °C.
To `CN1CCN(Cc2ccc(-c3cc4c(Nc5cccc6[nH]ccc56)c(C#N)cnc4s3)cc2)CC1` belongs over 245 °C; to `CCCCCCCCOc1ccc(-c2ccc(-c3ccc4c(c3)C(CC)(CC)c3cc(-c5ccc(-c6ccc(OCCCCCCCC)cc6)cc5)ccc3-4)cc2)cc1`, 146 °C; to `Cc1n[nH]c(=O)n1N=Cc1cccnc1`, 208 to 210 °C.
To `C[C@@H](n1cnc2cc(C(F)(F)F)ccc2c1=O)[C@](O)(Cn1cncn1)c1ccc(F)cc1F` belongs 142 to 143 °C; to `COc1cccc(OC)c1C(=O)NC1=NN=C(C(C)(C)C)CS1`, 175 to 177 °C; to `CC=CC(=O)c1c(CCC)[nH]c2cc(C(=O)OC)ccc12`, 153 to 154 °C.
The compound `Cc1ccccc1NC(=O)/C=C/C=C/CC1CCc2c(cccc2C(F)(F)F)C1` (stereo not drawn) showed a melting point of 171 °C.
Turning to `CC(NC(=S)Nc1ccc(Nc2ccccc2)nc1)C(C)(C)C` (stereo not drawn), the melting point was 168 to 170 °C.
As for `CN(C)N=Nc1ccsc1C(N)=O`, the figure is 168 to 170 °C; as for `COc1ncc(Cl)cc1C(O)C=Cc1ccc(Cl)cc1` (stereo not drawn), 135 to 140 °C.
To `Cc1ccc(C2(Cn3cncn3)OCCO2)cc1Br` belongs 121 °C; to `O=C(Nc1nc2cc(O)ccc2[nH]1)NC1CC1`, 320 °C; to `C=Cc1ncc2[nH]c3cccc(OCc4ccccc4)c3c2c1COC`, 183 to 185 °C.
As for `Cc1cnc(CCCCn2cnc(NC(N)=NCC(F)(F)F)n2)nc1O`, the figure is 235 to 237 °C; as for `CCCCN(c1nc(NCCCCCCN)nc(N(CCCC)C2CC(C)(C)N(C)C(C)(C)C2)n1)C1CC(C)(C)N(C)C(C)(C)C1`, 125 °C.
Compound `Cc1cc(-c2ccccc2)nn2cnnc12` had a melting point of 150 to 151 °C.
To `O=C(Nc1ccccc1C(=O)NCCc1ncc[nH]1)c1ccc(C(F)(F)F)cc1` belongs 207 to 215 °C; to `C#CCS(=O)(=O)c1ccc(NC(C)=O)cc1`, 175 to 179 °C; to `Clc1ccc2c(c1)C(c1ccccc1Cl)=NCc1nccn1-2`, 179 to 180 °C.
As for `Cc1nc(N2CCc3ccccc3CC2)c(C#N)c(=O)n1C1CC1`, the figure is 177 to 179 °C; as for `CN1CCN2c3ccc(Cl)cc3C(c3ccco3)=NCC2C1` (stereo not drawn), over 240 °C; as for `CCc1nc(Cl)c(C(=O)N(C)CC)n1Cc1ccc2oc(-c3ccccc3NC(=O)OC(C)(C)C)c(Br)c2c1`, 95 to 96 °C.
As for `COc1ccc(C(=O)C2CCN(C(C)=O)CC2)cc1`, the figure is 102 to 105 °C; as for `O=C1c2cc(Oc3ccc(Cl)cc3)ccc2CCN1Cc1cccnc1`, 93.5 to 94.5 °C.
`Cc1cc(C(=O)C(C#N)C(=O)Nc2ccccc2)c(C)n1C` (stereo not drawn): the melting point was in the range of 158 to 160 °C.
As for `O=C(Nc1cccc2[nH]ccc12)c1ccccc1OCC1CO1` (stereo not drawn), the figure is 171 °C.
In turn, `COc1cc2c(c(Cl)c1Cl)CCCC2` registered a melting point of 67 to 68.5 °C.
Compound `CCOC(=O)c1cc2c(cn1)[nH]c1cccc(C=Nc3ccccc3)c12` yielded a melting point of 298 to 302 °C.
In turn, `Cc1c(F)c(F)c(-n2ncc(C#N)c2N)c(F)c1F` displayed a melting point of 169 to 170 °C.
To `Clc1ccccc1CCN1CCN(c2n[nH]c3c2CCc2ccccc2-3)CC1` belongs 134 to 136 °C.
Take `CC1=CC(c2cccc(Cl)c2)C2=C(CC(C)(C)CC2=O)N1` (stereo not drawn): the melting point lay in the range of 183 to 185 °C.
As for `O=C(O)C(=O)c1ccc(OCCOc2ccc3cc4ccccc4cc3c2)cc1`, the figure is 213 to 214 °C; as for `CCCc1nn(C)c2c(Oc3ccc(F)cc3)nc(-c3ccccc3)nc12`, 126 to 128 °C; as for `CC(=O)c1ccc(S(=O)(=O)NCCCn2ccnc2)cc1`, 142 to 144 °C.
Consider `O=C(O)CCCCCCCCCC=Cc1ccco1`, for which the melting point was 38 to 39 °C.
`O=C1CC(c2cccc(-n3ccnc3)c2)=Nc2ccc(-c3ccc(OCc4ccccc4)nc3)cc2N1` came in with a melting point of 225 to 231 °C.
`O=C1NC(=O)N2c3ccc(Cl)cc3[C@H]3CCN4CCC[C@H]1[C@H]4[C@H]32` (racemic) registered a melting point of 243 °C.
For `COc1ccc(-c2c(OCCN3CCOCC3)c3ccccc3oc2=O)cc1`, the melting point came to 104 °C.
Compound `Cc1cc(-c2sc(N3CCN(Cc4ccc(C(F)(F)F)cc4)C3=O)nc2C)n[nH]1` returned a melting point of 238 to 239 °C.
In turn, `CCC(=O)n1ccc(-c2ccc(C(=O)N3Cc4cccn4Cc4ccccc43)cc2)n1` gave a melting point of 150 to 152 °C.
To `CCCCc1nc2c(c(=O)[nH]1)CN(C(=O)OCC[Si](C)(C)C)CC2` belongs 152 to 155 °C.
As for `O=C(NCC12CC3CC(CC(C3)C1)C2)c1c(Cl)ccc2nc(N3CCC(O)(C(=O)O)CC3)ccc12`, the figure is 200 to 204 °C.
For `O=C(CC(Cc1ccccc1)(C(=O)O)C(=O)O)c1cccc(C(F)(F)F)c1`, the melting point is 145 to 147 °C.
To `ON=C1CCC(c2ccc(Cl)c(Cl)c2)c2ccccc21` (stereo not drawn) belongs 159 to 162 °C; to `O=c1cc(Cl)cc(Cl)o1`, 43 to 45 °C; to `NC(=O)c1c(Cl)c(-c2ccccc2)n2c1CN(C(=O)CCC1CCCC1)CC2`, 172 to 174 °C.
For the compound `O=S1(=O)N=Cc2cccc(Cl)c21`, the melting point was in the range of 162 to 164 °C.
In turn, `Cc1ccc(S(=O)(=O)NC[C@H]2CN3C(=O)C[C@H]3O2)cc1` (racemic) returned a melting point of 123 to 125 °C.
As to `Cc1ccc(S(=O)(=O)N2CCC(NC(=O)Nc3ccc(OC(F)(F)F)cc3)CC2)cc1`, the melting point fell in the range of 205 to 207 °C.
As for `C=CCC1(CC=C)CCC(=Cc2ccc(Cl)cc2)C1(O)Cn1cncn1` (stereo not drawn), the figure is 128 °C; as for `CN1Cc2c(C#C[Si](C)(C)C)ncn2-c2ccc(F)cc2C1=O`, 184 to 185 °C; as for `CN(C)CCOc1ccc2oc(-c3cc4ccccc4cn3)cc(=NO)c2c1`, 203 to 205 °C.
Regarding `O=C(c1ccc(F)cc1)C1CCN(CCN2CNc3ccccc3C2=O)CC1`, the melting point stood at 203 °C.
Consider `OCc1nc2cccnc2n1Cc1ccc(-c2ccccc2)cc1`, for which the melting point fell in the range of 163 to 165 °C.
As for `Cc1noc(-c2ncn3c2[C@@H]2CCCN2C(=O)c2c(Br)cccc2-3)n1`, the figure is 237 to 238 °C; as for `O=C(CCc1nnc(Nc2ccccc2Cl)o1)NC1CCN(Cc2ccc(Cl)c(Cl)c2)CC1`, 154 to 156 °C.
`O=C(CCCOCCc1ccc2ccccc2c1)c1ccc(F)cc1` displayed a melting point of 68 to 70 °C.
To `Cn1cncc1C(N)(c1ccc(Cl)cc1)c1ccc2c(c1)C(c1cccc(Cl)c1)=NCc1nnnn1-2` (stereo not drawn) belongs 218 °C.
